From US20250154138A1, “Small Molecule IL-17A Modulators” (BeiGene, Ltd., priority 2022, published 2025)

Experiments:
[1] = molecular target: human IL-17A / human IL-17RA (Homo sapiens (Human), UniProt Q16552); assay: Human IL-17A biochemical assay (HTRF, blocking of IL-17A binding to IL-17RA); details: 0.4 nM IL-17A, 0.3 nM IL-17RA, max compound concentration 10 uM
Procedure, shortened: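 HTRF readout (ex337, em620/665 nm ratio) after anti-6His Tb cryptate and anti-human IgG-XL665 detection, 1 h RT. Beforehand, 0.4 nM IL-17A sat with compound 3 h RT, then 0.3 nM IL-17RA 1 h. IC50 by four-parameter logistic fit.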

[2] = test system: IL-17-induced GROα secretion from HT-29 cells; assay: GROα release assay in human colorectal adenocarcinoma epithelial cell (HT-29, ELISA); assay type: cell-based; details: Homo sapiens, HT-29, 48 h, 10 ng/mL IL-17A, highest concentration 10 μM, read-out: Cellular assay HT29 cell/CXCL1 IC50
Description: The purpose of the assay is to test the ability of a compound to neutralize IL17A proteins. IL17 can stimulate human epithelial cells to secrete GROα. The ability of one compound of the invention to neutralize IL-17-induced GROα secretion from the human colorectal adenocarcinoma epithelia cell line HT-29 is tested in this assay.
HT-29 cells (human colorectal adenocarcinoma epithelia cell, ATCC) were stimulated with IL-17A (Novoprotein, #C774) in final concentration of 10 ng/mL. The resultant GROα response was measured using an ELISA kit from Invitrogen (#88-52122). HT-29 cells were cultured in complete medium (McCoy's 5A medium+10% FBS) and maintained in a tissue culture flask using standard techniques. On day 1, detached the cell by using TrypLE (Gibco, #12605036) and used the complete medium to neutralize. The cells were centrifuged at 11,00 rmp for 4 minutes. Re-suspended the cell pellet in complete medium and seeded 50,000 HT-29 cells into the 96-well assay plate (Corning, 3599) at 135 μL complete medium per well. The cells were incubated for overnight, at 37° C./5% CO2 to adherent the plate. On day 2, prepared a 4-fold serial dilution of the tested compound in DMSO. The highest concentration of the compound was 10 μM. Transferred 2 μL of the serial diluted compound from the serial dilution plate into the reagent plate which was contained 198 μL complete medium with 100 ng/mL IL-17A per well. The compounds were incubated with the IL-17A for 15 minutes. 15 μL mixtures from reagent plate were transferred into the cell assay plate. Incubated the plate at 37° C./5% CO2 for 48 hours. After the incubation, on day 4, GROα level were measured with GROα ELISA as the manufacturer's instructions. 50 μL supernatant was collected form the assay plate to ELISA plate. ELISA plate was read at 450 nm on a microplate reader and compared to a standard calibration curve.
Data were processed using GraphPad Prism. GROα concentration was calculated from the standard curve. IC50 was determined using the equation log concentration (inhibitor) against response and fitted to four parameters.

Chain of human IL-17A / human IL-17RA (Q16552 24-155): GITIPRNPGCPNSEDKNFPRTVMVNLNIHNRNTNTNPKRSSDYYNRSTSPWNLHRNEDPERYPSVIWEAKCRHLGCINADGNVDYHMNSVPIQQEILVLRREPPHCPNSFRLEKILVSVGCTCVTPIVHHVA

Row | SMILES | IC50 [1] [nM] | IC50 [2] [nM]
1 | CNC(=O)C1(N2CC(C(C)C)NC2=O)Cc2cc3nc([C@@H](NC(=O)c4ccnn4C)C4CCCCC4)[nH]c3cc2C1 (stereo partly drawn) [Example 28, 2-((S)-cyclohexyl(1-methyl-1H-pyrazole-5-carboxamido)methyl)-6-(4-isopropyl-2-oxoimidazolidin-1-yl)-N-methyl-1,5,6,7-tetrahydroindeno[5,6-d]imidazole-6-carboxamide] | 394 | 76.5
2 | CNC(=O)C1(N2C[C@@H](C(C)C)NC2=O)Cc2ccc(NC(=O)[C@@H](NC(=O)c3cccc(C)c3)C3CCCCC3)cc2C1 (stereo partly drawn) [Example 71, 5-((S)-2-cyclohexyl-2-(3-methylbenzamido)acetamido)-2-((R)-4-isopropyl-2-oxoimidazolidin-1-yl)-N-methyl-2,3-dihydro-1H-indene-2-carboxamide] | 21 | 217
3 | COCC1(N2CC3(CC3)CNC2=O)Cc2ccc(NC(=O)[C@@H](NC(=O)c3ccnn3C(C)C)C(C3CC3)C3CC3)cc2C1 (stereo partly drawn) [Example 160, N-((2S)-1,1-dicyclopropyl-3-((2-(methoxymethyl)-2-(6-oxo-5,7-diazaspiro[2.5]octan-5-yl)-2,3-dihydro-1H-inden-5-yl)amino)-3-oxopropan-2-yl)-1-isopropyl-1H-pyrazole-5-carboxamide] | 110 | 93.1
4 | Cc1nonc1C(=O)N[C@H](C(=O)Nc1ccc2c(c1)CC(c1c[nH]c(C3CC3)n1)(N1C[C@@H](C(C)C)NC1=O)C2)C(C1CC1)C1CC1 (stereo partly drawn) [Example 252, N-((2S)-1,1-dicyclopropyl-3-((2-(2-cyclopropyl-1H-imidazol-4-yl)-2-((R)-4-isopropyl-2-oxoimidazolidin-1-yl)-2,3-dihydro-1H-inden-5-yl)amino)-3-oxopropan-2-yl)-4-methyl-1,2,5-oxadiazole-3-carboxamide] | 829 | 1160
5 | CNC(=O)C1(N2C[C@@H](C(C)C)NC2=O)Cc2ccc(NC(=O)[C@@H](NC(=O)c3ccnn3C(C)C)C3CCCCC3)cc2C1 (stereo partly drawn) [Example 59, N-((1S)-1-cyclohexyl-2-((2-((R)-4-isopropyl-2-oxoimidazolidin-1-yl)-2-(methylcarbamoyl)-2,3-dihydro-1H-inden-5-yl)amino)-2-oxoethyl)-1-isopropyl-1H-pyrazole-5-carboxamide] | 93 | 34.5
6 | Cn1nccc1C(=O)N[C@H](C(=O)Nc1ccc2c(c1)OC(CN1C[C@@H](C(F)(F)F)NC1=O)C2)C1CCCCC1 (stereo partly drawn) [Example 237, N-((1S)-1-cyclohexyl-2-oxo-2-((2-(((S)-2-oxo-4-(trifluoromethyl)imidazolidin-1-yl)methyl)-2,3-dihydrobenzofuran-6-yl)amino)ethyl)-1-methyl-1H-pyrazole-5-carboxamide] | 27.1 | 53.3
7 | Cc1nonc1C(=O)N[C@H](C(=O)Nc1ccc2c(c1)CC(C(=O)Nc1ccccc1)(N1C[C@@H](C(C)C)NC1=O)C2)C(C1CC1)C1CC1 (stereo partly drawn) [Example 234, N-((2S)-1,1-dicyclopropyl-3-((2-((R)-4-isopropyl-2-oxoimidazolidin-1-yl)-2-(phenylcarbamoyl)-2,3-dihydro-1H-inden-5-yl)amino)-3-oxopropan-2-yl)-4-methyl-1,2,5-oxadiazole-3-carboxamide] | 340 | 207
8 | COc1ccc(CNC(=O)C2(N3C[C@@H](C(C)C)NC3=O)Cc3ccc(NC(=O)[C@@H](NC(=O)c4ccnn4C)C4CCCCC4)cc3C2)cc1 (stereo partly drawn) [Example 150, N-((1S)-1-cyclohexyl-2-((2-((R)-4-isopropyl-2-oxoimidazolidin-1-yl)-2-((4-methoxybenzyl)carbamoyl)-2,3-dihydro-1H-inden-5-yl)amino)-2-oxoethyl)-1-methyl-1H-pyrazole-5-carboxamide] | 20 | 46.5
9 | Cc1nonc1C(=O)N[C@H](C(=O)Nc1ccc2c(c1)CC(C(=O)Nc1cncs1)(N1CC3(CC3)CNC1=O)C2)C1CCC(F)(F)CC1 (stereo partly drawn) [Example 215, N-((1S)-1-(4,4-difluorocyclohexyl)-2-oxo-2-((2-(6-oxo-5,7-diazaspiro[2.5]octan-5-yl)-2-(thiazol-5-ylcarbamoyl)-2,3-dihydro-1H-inden-5-yl)amino)ethyl)-4-methyl-1,2,5-oxadiazole-3-carboxamide] | 33.6 | 134
10 | Cc1nonc1C(=O)N[C@H](C(=O)Nc1ccc2c(c1)CC(C#N)(N1C[C@@H](C(C)C)NC1=O)C2)C(C1CC1)C1CC1 (stereo partly drawn) [Example 266, N-((2S)-1-((2-cyano-2-((R)-4-isopropyl-2-oxoimidazolidin-1-yl)-2,3-dihydro-1H-inden-5-yl)amino)-3,3-dicyclopropyl-1-oxopropan-2-yl)-4-methyl-1,2,5-oxadiazole-3-carboxamide] | 912 | 659
11 | Cn1nccc1C(=O)NC(C(=O)Nc1ccc2c(c1)CC(N1C[C@@H](C(F)(F)F)NC1=O)C2)C1CCc2cc(Cl)ccc2C1 (stereo partly drawn) [Example 217, N-(1-(6-chloro-1,2,3,4-tetrahydronaphthalen-2-yl)-2-oxo-2-((2-((S)-2-oxo-4-(trifluoromethyl)imidazolidin-1-yl)-2,3-dihydro-1H-inden-5-yl)amino)ethyl)-1-methyl-1H-pyrazole-5-carboxamide] | 62.5 | 394
12 | Cn1nccc1C(=O)N[C@H](C(=O)Nc1ccc2c(c1)OCC(CN1CC(C(F)(F)F)NC1=O)C2)C1CCCCC1 (stereo partly drawn) [Example 291, N-((1S)-1-cyclohexyl-2-oxo-2-((3-(((S)-2-oxo-4-(trifluoromethyl)imidazolidin-1-yl)methyl)chroman-7-yl)amino)ethyl)-1-methyl-1H-pyrazole-5-carboxamide] | 1550 | 1060
13 | CC(C)[C@@H]1CN(C2Cc3ccc(NC(=O)[C@@H](NC(=O)c4ccnn4C)C4CCCCC4)cc3C2)C(=O)N1 (stereo partly drawn) [Example 162, N-((1S)-1-cyclohexyl-2-((2-((R)-4-isopropyl-2-oxoimidazolidin-1-yl)-2,3-dihydro-1H-inden-5-yl)amino)-2-oxoethyl)-1-methyl-1H-pyrazole-5-carboxamide] | 540 | 1060
14 | CC[C@H]1CN(C2(C(=O)NC)Cc3ccc(NC(=O)[C@@H](NC(=O)c4ccnn4C)C4CCCCC4)cc3C2)C(=O)N1 (stereo partly drawn) [Example 18, N-((1S)-1-cyclohexyl-2-((2-((S)-4-ethyl-2-oxoimidazolidin-1-yl)-2-(methylcarbamoyl)-2,3-dihydro-1H-inden-5-yl)amino)-2-oxoethyl)-1-methyl-1H-pyrazole-5-carboxamide] | 1000 | 2550
15 | CC(C)C1(N2CC3(CC3)CNC2=O)Cc2ccc(NC(=O)[C@@H](NC(=O)c3ccnn3C)C3CCCCC3)cc2C1 (stereo partly drawn) [Example 170, N-((1S)-1-cyclohexyl-2-((2-isopropyl-2-(6-oxo-5,7-diazaspiro[2.5]octan-5-yl)-2,3-dihydro-1H-inden-5-yl)amino)-2-oxoethyl)-1-methyl-1H-pyrazole-5-carboxamide] | 169 | 227
16 | CNC(=O)C1(N2CC3(CNC2=O)CC(F)(F)C3)Cc2ccc(NC(=O)[C@@H](NC(=O)c3ccnn3C)C3CCCCC3)cc2C1 (stereo partly drawn) [Example 174, N-((1S)-1-cyclohexyl-2-((2-(2,2-difluoro-7-oxo-6,8-diazaspiro[3.5]nonan-6-yl)-2-(methylcarbamoyl)-2,3-dihydro-1H-inden-5-yl)amino)-2-oxoethyl)-1-methyl-1H-pyrazole-5-carboxamide] | 264 | 485
17 | Cc1nonc1C(=O)N[C@H](C(=O)Nc1ccc2c(c1)CC(N1CC3(CC3)CNC1=O)(C(C)(C)O)C2)C1CCC(F)(F)CC1 (stereo partly drawn) [Example 247, N-((1S)-1-(4,4-difluorocyclohexyl)-2-((2-(2-hydroxypropan-2-yl)-2-(6-oxo-5,7-diazaspiro[2.5]octan-5-yl)-2,3-dihydro-1H-inden-5-yl)amino)-2-oxoethyl)-4-methyl-1,2,5-oxadiazole-3-carboxamide] | 20.9 | 40.8
18 | CNC(=O)C1(N2CC(CC3CC3)NC2=O)Cc2ccc(NC(=O)[C@@H](NC(=O)c3ccnn3C)C3CCCCC3)cc2C1 (stereo partly drawn) [Example 65, N-((1S)-1-cyclohexyl-2-((2-(4-(cyclopropylmethyl)-2-oxoimidazolidin-1-yl)-2-(methylcarbamoyl)-2,3-dihydro-1H-inden-5-yl)amino)-2-oxoethyl)-1-methyl-1H-pyrazole-5-carboxamide] | 713 | 2030
